Data as given in patent US20240041830A1, “CIRCULATING BIOMARKERS OF RESPONSE TO PD-1/PD-L1 BLOCKADE AND GSK-3 INHIBITION” (Brown University, priority 2022, published 2024).

Legend:
SW480 = test: multicolor co-culture of SW480 and donor-derived CD8+ T cells; details: co-culture with donor-derived CD8+ T cells, 24 hours, normalized
Method: Isolation of donor-derived CD8+ T cells. An Easy Step Human CD8+ T Cell Isolation Kit was used to isolate CD8+ T cells from a donor PBMC sample via negative selection (Cat #, 17913, Stem Cell Technologies, Vancouver, Canada).
Multicolor immune cell co-culture experiments. A total of 10,000 HCT-116, SW480, or HT-29 colorectal cancer cells were plated per well in a clear-bottom, black-walled 48-well tissue culture plate and were allowed to adhere overnight. Cells were subsequently treated with DMSO, 5 μM or 10 μM elraglusib, or 10,000 TALL-104, donor-derived CD8+ T cells, or NK-92 cells (for an effector-to-tumor ratio of 1:1) for twenty-four hours. Immune cell monocultures were treated with DMSO, 5 μM or 10 μM elraglusib and cell viability was monitored to ensure that the concentrations of drug used were not cytotoxic to immune cells. […] 10× images were captured using a Nikon Ti-U Inverted Fluorescence Microscope and NIS-Elements F Package imaging software 3.22.00 Build 710 (Nikon Instruments Inc., New York, NY, USA). The number of red/green color cells in random fields was determined using thresholding and particle analysis in the Fiji modification (RRID: SCR_002285) of ImageJ and expressed as a dead/live cell ratio. […] At least one hundred cells were evaluated per sample, with three independent replicates. […]

HT-29 = test: microarray analysis; assay type: cell-based, human; details: 1 μM, 24 hours, vs untreated
Method: Microarrays. A total of 0.5×10^6 tumor cells (HCT-116, HT-29, KM12C) were plated in a 6-well plate and allowed to adhere overnight before 24-hour treatment, as indicated. Then, 1×10^6 immune cells (NK92, TALL-104) were plated and treated with elraglusib as indicated for twenty-four h. RNA was isolated from cell pellets in batches of six using a RNeasy Plus Mini Kit (Cat #74134, Qiagen, Hilden, Germany). Acceptable RNA concentration and quality were verified with Nanodrop and Bioanalyzer measurements. GeneChip™ Human Transcriptome Array 2.0 assays were conducted according to manufacturer instructions in two batches using randomized samples to limit batch effects (Cat #902162, Applied Biosystems, Waltham, MA, USA). Applied Biosystems Transcriptomic Analysis Console (TAC) software (RRID: SCR_016519) was used to calculate fold changes in gene expression relative to the untreated control cells. Values were considered statistically significant for p values<0.05.
The inventors then utilized microarray analysis to gain insights into gene expression changes in colorectal cancer cell lines post-GSK-3 inhibition with elraglusib. Several colorectal cancer cell lines (HCT-116, HT-29, KM12C) were treated with elraglusib at IC-50 concentrations or DMSO as vehicle control for twenty-four hours. Treated versus untreated samples were compared in triplicate using microarray analysis FIG. 10. Results were calculated using a fold change (FC) cutoff of >1.5, <−1.5, and a minimum p-value of<0.05. HCT-116 cells had 340 differentially expressed genes post-treatment. FIG. 2C.
TABLE 9 description. HT-29 CRC cell microarray analysis. HT-29 colorectal cancer cells were treated with 1 μM elraglusib for 24 hours and treated versus untreated control samples were compared in triplicate via microarray analysis (N=3). Table showing differentially expressed genes of interest with their corresponding fold changes, p values, descriptions, and functions. Genes highlighted in yellow are known p53 targets. Genes are ordered by fold change and were calculated using a fold change cutoff of >1.5, <−1.5, and a minimum p value of <0.05.

NK-92 = test: Western blot analysis; assay type: cell-based, human
Method: Western blot analysis. Cells were plated in a 6-well plate and incubated overnight before the spent media was replaced with drugged media. Drug treatment lasted for indicated durations. Protein was extracted using radioimmunoprecipitation (RIPA) assay buffer (Cat #R0278, Sigma-Aldrich, St. Louis, MO, USA) containing cOmplete™, Mini, EDTA-free Protease Inhibitor Cocktail (Cat #4693159001, Roche, Basel, Switzerland) from sub-confluent cells. Denaturing sample buffer was added, samples were boiled at 95° C. for ten minutes, and an equal amount of protein lysate was electrophoresed through NuPAGE™ 4 to 12%, bis-Tris, 1.5 mm, Mini Protein Gels (Invitrogen, Waltham, MA, USA) then transferred to PVDF membranes. The PVDF membrane was blocked with 5% non-fat milk (Sigma-Aldrich, St. Louis, MO, USA) in 1× TTBS. Primary antibodies were incubated with the transferred PVDF membrane in blocking buffer at 4° C. overnight. Secondary antibodies included Goat anti-Rabbit IgG (H+L) Secondary Antibody, HRP (Cat #31460, Invitrogen, Waltham, MA, USA), and Goat anti-Mouse IgG (H+L) Secondary Antibody, HRP (Cat #31430, Invitrogen, Waltham, MA, USA). The signal was detected using Pierce™ ECL Western Blotting Substrate (Cat #32106, Thermo Scientific, Waltham, MA, USA) and a Syngene Imaging System (RRID: SCR_015770).
Because of the differential impact of elraglusib on tumor and immune cells that the inventors observed via Western blot, the inventors compared the levels of another survival protein Mcl-1 in NK-92 natural killer cells.

[1] = immune cells, cell line not given

Cn1cc(C2=C(c3coc4ccc(F)cc34)C(=O)NC2=O)c2cc3c(cc21)OCO3 [elraglusib]
dead cells out of total cells (SW480; 5 μM): 65%
dead cells out of total cells (SW480; 10 μM): 75%
AEN Fold Change (HT-29): 2.33
AGGF1 Fold Change (HT-29): −2.21
B2M Fold Change (HT-29): 2.41
BARD1 Fold Change (HT-29): −5.06
BCCIP Fold Change (HT-29): 1.61
BCL6 Fold Change (HT-29): −3.43
BRAF Fold Change (HT-29): −1.53
BTN3A2 Fold Change (HT-29): −1.58
CCAR1 Fold Change (HT-29): 1.56
CCNE1 Fold Change (HT-29): −2.6
CCNE2 Fold Change (HT-29): −5.83
CD14 Fold Change (HT-29): −2.63
CD276 Fold Change (HT-29): −1.56
CDC25C Fold Change (HT-29): −2.45
CDC45 Fold Change (HT-29): −1.75
CDCA3 Fold Change (HT-29): −1.7
CDK1 Fold Change (HT-29): −3.05
CDK2 Fold Change (HT-29): −2.23
CDKN1A Fold Change (HT-29): 1.72
CRLF3 Fold Change (HT-29): 1.5
DYNC1H1 Fold Change (HT-29): −1.7
E2F7 Fold Change (HT-29): −3.82
E2F8 Fold Change (HT-29): −3.1
EAPP Fold Change (HT-29): −1.58
EGR1 Fold Change (HT-29): 5.41
ERBB2IP Fold Change (HT-29): −1.7
FADD Fold Change (HT-29): −1.66
FZD7 Fold Change (HT-29): −1.71
HIP1 Fold Change (HT-29): −1.67
IL17RA Fold Change (HT-29): −1.68
IL17RB Fold Change (HT-29): −2.03
ITGB6 Fold Change (HT-29): −1.91
JAK1 Fold Change (HT-29): −1.58
MAP3K1 Fold Change (HT-29): −6.1
MCIDAS Fold Change (HT-29): −1.61
MDM4 Fold Change (HT-29): 1.68
MTA3 Fold Change (HT-29): −1.84
MYD88 Fold Change (HT-29): −1.68
NCR3LG1 Fold Change (HT-29): 1.78
NFKBIA Fold Change (HT-29): −5.25
NFKBIZ Fold Change (HT-29): −2.68
PDS5B Fold Change (HT-29): −1.58
PIM1 Fold Change (HT-29): −1.75
SFN Fold Change (HT-29): 1.54
SGK1 Fold Change (HT-29): −1.75
SMAD3 Fold Change (HT-29): 1.69
SOCS7 Fold Change (HT-29): 1.74
TGFBR3 Fold Change (HT-29): −4.82
TNFRSF12A Fold Change (HT-29): 1.9
TNFSF15 Fold Change (HT-29): −2.32
TNIK Fold Change (HT-29): −1.51
TRAIP Fold Change (HT-29): 1.83
TRIB1 Fold Change (HT-29): −9.14
UHRF1 Fold Change (HT-29): −1.75
NF-κB-inducing kinase (NIK) expression (NK-92; [1]): increases
Survivin expression (NK-92; [1]): increases
Mcl-1 protein expression (NK-92; through the 72-hour endpoint): did not observe a significant decrease
